Measurements taken from patent US6468509B2, “Sunscreen composition containing sol-gel microcapsules” (Sol-Gel Technologies Ltd., priority 1999, dated 2002).

Experiments:
yeast strain, XD83 = experiment: Phototoxicity test based on survival of yeast under simulated sunlight; assay type: cell-based; conditions: simulated sunlight 13 mW/cm^2
Procedure: The phototoxicity tests are based on the survival of a yeast strain, XD83. A single colony of yeast is inoculated into growth medium, and harvested during the exponential growth. The cells are suspended at a known concentration in a phosphate buffer, to afford a uniform population of cells. The cells are illuminated with simulated sunlight (13 mW/cm^2) in the absence or presence of test compounds with continous stirring. Samples are taken at increasing times (0, 10, 20, 30 minutes of illumination). The samples are analyzed semi-quantitatively, by applying two dilutions of the sample as small droplets (10 μl) to the surface of nutrient agar plates, and incubated at 37° C. for 48 hours. Patches of growth are found around the droplet. It can be easily seen when growth has been decreased. Sunscreen samples are introduces as 1000 μM concentration of the major UVB sunscreen active ingredient.

supercoiled plasmid DNA = conditions: positive controls at saturation concentrations; cited from earlier work

CCCCC(CC)COC(=O)c1ccc(N(C)C)cc1 (stereo not drawn) [Padimate-O, 2-Ethylhexyl N,N-Dimethyl-p-aminobenzoate]
phototoxic effect on the growth of the yeast cell (yeast strain, XD83; positive controls): strong phototoxic effect
Phototoxicity (yeast strain, XD83; yeast XD83, 0-30 minutes illumination, 1000 μM of major UVB sunscreen active ingredient): Clearly toxic
strand breaks on DNA when illuminated in vitro (supercoiled plasmid DNA): inflict strand breaks on DNA
